Records with an inconclusive call do not appear.
Test system: M. tuberculosis H37Rv growth inhibition, 7H9 media
Test: M. tuberculosis growth inhibition, HTS (AID 449762);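 further: bacterial growth assessed after seven days of incubation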
Settings: for IC90: measured here: IC90 growth inhibition

SMILES | IC50 [µM] | IC90 [µM]
Cc1ccc2c(c1)c1ncnc(N3CCc4ccccc4C3)c1n2C | 81.1 | > 100
Cc1ccc(Nc2nc(N)c([N+](=O)[O-])c(N3CCCC(C)C3)n2)cc1C (stereo unspecified) | 99.9 | > 100
CC[N+](C)(CC)CCCCOc1ccc2c(c1)C(=O)c1cc(OCCCC[N+](C)(CC)CC)ccc1-2 | 0.96 | 1.52
O=C(CN1CCCCC1)Nc1nnc(-c2ccc([N+](=O)[O-])cc2)s1 | 16.2 | 62.4
CC(C)(O)C#Cc1ccc(C(=O)Nc2ccc3c(c2)OCO3)s1 | 1.63 | > 100
C=CCNCC(=O)N1N=C(c2ccc3ccccc3c2)CC1c1ccc(OC)cc1 (stereo unspecified) | 21.8 | 24.3
Cc1ccc(NC(=O)Cn2ccsc2=N)c([N+](=O)[O-])c1 | 5.48 | 12.7
CSc1ccc(NC(=O)Nc2cccn(Cc3ccccc3)c2=O)cc1 | 18.5 | > 100
Cc1cccc(-c2oc3ccc(-c4ccc5c(c4)OCO5)cc3c2C#Cc2cncn2C)c1 | 2.9 | 3.36
CCO[C@H]1OC(C(=O)NCc2nc3ccccc3[nH]2)=C[C@@H](c2csc3ccccc23)[C@@H]1CCCO | 44.8 | 50.5
COc1ccc(N=c2cc(-c3ccc(O)cc3)oc3ccccc23)cc1 | 22.3 | 25.8
CC1CCN(C(=S)NC(=O)c2cccs2)CC1 | 12.8 | 29
c1ccc2c(c1)CCN(c1nc(CN3CCOCC3)nc3sc4c(c13)CCCC4)C2 | 13.8 | 33.6
COc1cc2nc(Nc3ccc(C)c(Cl)c3)nc(N)c2cc1OC | 33.2 | 98.8
Cc1cc(C)cc(NC(=O)CCc2ccc(C)o2)c1 | 43 | > 100
CCC(=O)N1c2ccc(S(=O)(=O)CCC(=O)N3CCn4c3nc3ccccc34)cc2CC1C (stereo unspecified) | 9.28 | 19.5
COc1ccc(C(CCN2CCCCC2)c2c(OC)cc(OC)c3c(-c4ccccc4)cc(=O)oc23)cc1 (stereo unspecified) | 15.1 | 22.4
CCOC(=O)c1ccc(N=Cc2c(O)c3ccccc3oc2=O)cc1 | 66 | > 100
CCCOc1ccc(-c2cnc(SCC(N)=O)nc2N)cc1 | 12.1 | 50.2
Cc1ccc(-n2cc(CN(C)Cc3nccn3C)c(-c3cccc(C)c3)n2)cc1 | 9.52 | 13.3
Cc1cc(-c2cc(-c3ccccc3)on2)nc(NC2CCCC2)n1 | 45.8 | 53.9
Nc1ccc2c(c1)Cc1ccccc1-2 | – | > 100

SMILES | IC50 [µM] | IC90 [µM]
O=C(NCCc1ccc(Cl)cc1)c1ccc(CS(=O)Cc2ccc(Cl)cc2)o1 (stereo unspecified) | 37.7 | 49.1
O=C(CSc1ccc(Cl)cc1)N1CCC(c2nc3ccccc3s2)CC1 | 85.9 | 92.9
CC(C)(C)C(=O)NC(=S)NNC(=O)c1sc2ccccc2c1Cl | 23.8 | > 100
CCN(CC)C(=O)Oc1ccc2c(=O)c(-c3ccc(OC)cc3)coc2c1 | 28.5 | > 100
CCOC(=O)c1sc2nc(C)nc(SC(C)C(=O)N(C)c3ccccc3)c2c1C (stereo unspecified) | 35.1 | 46.5
COc1ccccc1N(O)C1CC(=O)N(c2ccc(Br)cc2)C1=O (stereo unspecified) | 16.8 | 32.3
CN1/C(=C\C(=O)COC(=O)c2ccc([N+](=O)[O-])o2)C(C)(C)c2ccccc21 | 1.04 | 3.54
CCCCn1nc(C(=O)Nc2ccccc2N2CCCC2)c2ccccc2c1=O | 11.8 | > 100
Oc1ccccc1/C=N/Nc1ccnc(SCc2ccccc2)n1 | 1.43 | 1.55
Cc1ccc(-n2cc(CNCCn3nc(C)cc3C)c(-c3ccc(F)cc3)n2)cc1 | 3.48 | 9.36
CCCCCc1ccc(-c2cn(Cc3cccc(OC)c3)nn2)cc1 | 20.7 | 50
COc1ccc(-c2oc3cccnc3c2/C=C/c2ccc(OC)c(OC)c2)cc1 | 51.3 | > 100
Cc1ccccc1-n1c(SCC(=O)N/N=C/c2c(C)nn(-c3ccccc3)c2C)nc2ccccc2c1=O | 2.85 | 3.52
C[CH2][Hg][S]c1ccccc1C(=O)O | 0.34 | 0.81
OC(CN1CCN(c2ccccn2)CC1)Cn1c2ccccc2c2ccccc21 (stereo unspecified) | 36.1 | 51.7
Cc1ccc(/C=C/C(=O)N2CC(C)CC(C)C2)o1 (stereo unspecified) | 8.06 | 22.1
CSC(=S)NCc1cccnc1 | 11.5 | 34.7
c1nc2n(n1)C1=C(CCCC1)C1(CCCCC1)N2 | 10.2 | 30
CC1CCCC(C)N1C(=O)COC(=O)c1cc(-c2cccs2)nn1-c1ccccc1 (stereo unspecified) | 24.5 | 55.6
Cn1cc(NC(=O)CCl)cn1 | 4.36 | 8.63
COc1ccc(OC)c(C(=O)NC(CC(N)=O)c2ccc(NCc3ccc(F)c(F)c3)c([N+](=O)[O-])c2)c1 (stereo unspecified) | 5.38 | 23.6
CC1CCCC/C1=N\NC(=S)NCCc1ccccc1 (stereo unspecified) | 21.9 | 24.6

SMILES | IC50 [µM] | IC90 [µM]
O=C(CN1CCN(c2ccccc2O)CC1)Nc1ccccc1C(=O)NCCc1ccccc1 | 44.3 | 57.9
Nc1ccccc1C#CC(=O)c1ccccc1 | 1.11 | 43.1
O=C(c1ccccc1)C1CN(Cc2ccccc2)CCC1(O)c1ccccc1 (stereo unspecified) | 9.4 | 14.6
CCOc1ccc(-c2[nH]ncc2-c2ccc(Cl)cc2)c(O)c1 | 46.8 | 66.5
COC(=O)C1=C(C)N(Cc2ccccc2)C(=NCc2cccc(Cl)c2)N[C@H]1c1ccccc1 | 16.5 | 21
CC(=O)C1=C(C)NC(SCC(=O)c2ccc(F)cc2)=C(C#N)C1c1ccco1 (stereo unspecified) | 46.1 | 51
CCCOc1cccc(-c2nn(-c3ccccc3)cc2/C=C(\C#N)C(=O)NCCCn2ccnc2)c1 | 44.7 | 62.3
Cc1nc(-c2ccc(Cl)cc2)sc1C1(C)CC(c2ccc(C#N)cc2)=NO1 (stereo unspecified) | 51.4 | > 100
Cc1ccc(OCc2cc(C(=O)N(C)Cc3cnc4ccccn34)no2)cc1C | 19.6 | 32
CCOC(=O)C1CCN(C(=O)CSCc2nc(-c3ccc(OCC)cc3)oc2C)CC1 | 42.9 | 48.1
O[C@@H](c1cc(C(F)(F)F)nc2c(C(F)(F)F)cccc12)[C@H]1CCCCN1 | 18.2 | 24.5
CC1(C)Cc2c(sc(NC(=O)c3ccc(C(=O)c4ccccc4)cc3)c2C(N)=O)C(C)(C)N1 | 22.5 | > 100
O=C(Nc1ccc(C2=NCCN2)cc1)c1ccc(Cl)c(C(=O)Nc2ccc(C3=NCCN3)cc2)c1 | 11.3 | 12.3
C=C(C)C(=O)OCC(O)COc1ccc(C(C)(C)c2ccc(OCC(O)COC(=O)C(=C)C)cc2)cc1 (stereo unspecified) | 37.8 | 48.5
O=C(c1ccc(Cl)cc1)N1N=C(c2ccccn2)CC1(O)C(F)(F)F (stereo unspecified) | 2.21 | > 100
CC(C)NC(=O)c1onc(CSc2ccc(F)c(F)c2)c1C(=O)O | 11 | 18.9
Cc1nn(-c2nc3ccccc3[nH]2)c(N)c1-c1ccc(Cl)cc1 | 0.21 | 2.6
O=C(/C=C/c1c(F)cccc1Cl)c1ccc(F)cc1 | 23.8 | 34.4
CSc1ccc(CNC(=O)c2ccc(NC(=O)C3=CSCCO3)cc2)cc1 | 0.66 | > 100
CNc1nc(SCc2ccccc2Cl)nc2c1CCCC2 | 0.73 | 2.52
Cc1nc(S/C(=C/c2ccc(-c3ccc(Cl)cc3)o2)C(=O)O)n[nH]1 | 18.4 | > 100
COc1ccc(C[C@H]2CN3C(=NC[C@H]3Cc3ccccc3)N2CCNC(=O)CCC2CCCCC2)cc1 | 16.8 | 21.3

SMILES | IC50 [µM] | IC90 [µM]
Cc1cc2c(ccc3c2no[n+]3[O-])nn1 | 11.6 | 14.6
CCc1ccc(NC(=O)c2ccc(C3SCC(=O)N3CCc3ccccc3)cc2)cc1 (stereo unspecified) | 97.5 | > 100
CCOc1cc(/C=N\NC(=O)Cn2nc([N+](=O)[O-])cc2C)ccc1OCc1cccc2ccccc12 | – | > 100
CCC1=C(OC(=O)N(CC)CC)N2C(=O)OC(=NCCc3c[nH]c4ccccc34)[C@]2(Cc2ccccc2)[C@H]2C1=CC[C@H]1C(=O)NC(=O)[C@H]12 | 30.7 | 44.8
Nc1ccc2cc(Br)ccc2c1 | 51.8 | 84.9
Oc1ccc(F)c2cccnc12 | 5.26 | 6.88
CC1(C)CC(=O)c2c(O)cc(OCc3ccc(Br)cc3)cc2O1 | 42 | 67.3
O=C(c1cc2cc(Cl)ccc2[nH]1)N1CCN(Cc2ccc3c(c2)OCO3)CC1 | – | > 100
CCOC(=O)c1cc(-c2csc(Nc3c(C)cc(C)cc3C)n2)on1 | 1.07 | 1.76
CN(C)c1nc(NCc2ccccc2)nc(N/N=C/c2ccc3c(c2)OCO3)n1 | 42.7 | > 100
O=C(NC(=S)N1CCc2ccccc21)c1ccc(Br)o1 | 5.63 | 9.62
COc1ccc(-c2cn3cc([N+](=O)[O-])ccc3n2)cc1OC | 17.8 | > 100
COc1cc2nc(N3CCN(c4cc(C)ccc4C)CC3)nc(N)c2cc1OC | 13.8 | 15.8
COc1ccc(NC(=O)ON=C2c3ccccc3-c3ccccc32)cc1 | – | > 100
c1ccc2nc(-c3ccc(-n4ccnc4)cc3)ccc2c1 | 23.5 | 25.9
Cc1ccc2ccc3ccc(C)nc3c2n1 | 0.49 | 1.31
C=CCN(CC=C)C(=S)NC(=O)c1ccc(-c2ccccc2)cc1 | 10.8 | 14.1
COC(=O)C(C)Oc1ccc(-c2nccc(-c3ccccn3)n2)cc1 (stereo unspecified) | 1.73 | 4.04
CN(C(=O)COC(=O)/C=C/c1ccc(Cl)c(Cl)c1)c1c(N)n(Cc2ccccc2)c(=O)[nH]c1=O | – | > 100
Cc1cc(C2=NNC(=NC3CCCCC3)SC2)c(C)n1-c1c(C)n(C)n(-c2ccccc2)c1=O | 88.2 | > 100
Cc1cc(C)c(C)c(N=Nc2nc3ccccc3n2C)c1C | 6.16 | 6.93
COCC(=O)O[C@]1(CCN(C)CCCc2nc3ccccc3[nH]2)CCc2cc(F)ccc2[C@@H]1C(C)C | 32.2 | 42.6
